Experimental data published in patent US20070219180A1, “Muscle Relaxtion Accelerator and Therapeutic Agent for Muscular Tissue Diseases Such as Muscle Relaxation Failure” (priority 2004, published 2007).

System: male Wistar rats
Assay: Experiment 1: left ventricular end diastolic pressure in rats under calcium chloride and norepinephrine infusion
Format: in vivo, rat
Description: In Experiment 1, the hydrochloride of 4-[3-(4-benzylpiperidine-1-yl) propionyl]-7-methoxy-2,3,4,5-tetrahydro-1,4-benzothiazepine, the compound in the invention (hereinafter called the compound), was used as a pharmaceutically acceptable salt of the 1,4-benzothiazepine derivative. Eight-week old male Wistar rats weighing 300-330 g were used in the study. The rats were anesthetized with 1,000 mg/kg of urethane and 80 mg/kg of α-chloralose by subperitoneal injection, and natural respiration was maintained. In this experiment, 100 mg of the compound was dissolved in 1 ml of dimethylsulfoxide (DMSO) and the resulting DMSO solution of the compound was stored at 4° C. Norepinephrine solution was prepared by dissolving 1 mg of norepinephrine in 41 μl of distilled water, at an infusion speed of 40 μg/kg/min.
Firstly, continuous infusion catheters of calcium chloride solution or norepinephrine solution containing calcium chloride were inserted into the right external jugular veins of the rats, and microchip catheters (SPC-320, Millar) were inserted into the left ventricles via the right common arteries. In addition, test drug infusion catheters were inserted into the right femoral veins.
A 1-lead electrocardiogram and the left ventricular pressure were recorded simultaneously on a personal computer via an A/D converter. In order to determine the left ventricular end diastolic pressure, a pressure equivalent to the R wave of the electrocardiogram was measured at 20 heart beats every minute, and the mean of the pressure so measured was determined as the left ventricular end diastolic pressure, at the time of measuring. In the preparation step, blood pressure, pulse, and electrocardiogram of the rats were monitored for 15 minutes and allowed to stabilize, and then 5% dextrose solution containing calcium chloride (at a concentration based on the weight of the rat) was infused into the right external jugular vein for 20 minutes at 16.6 μl/min (9.0 mg/kg/min of calcium chloride).
Secondly, norepinephrine solution containing calcium chloride without changes in dosage was immediately injected at a rate of 40 μg/kg/min via the right external jugular vein. After the start of the administration, calcium chloride and norepinephrine were then continuously injected in the form of a norepinephrine solution containing calcium chloride. With continuous injection of calcium chloride and norepinephrine (in the form of a norepinephrine solution containing calcium chloride) via the right external jugular vein, 0.2 ml of […] was administered over 30 seconds to the first rat (weight: 300 g) as a control via the right femoral vein, 5 minutes after commencement of injection (intravenous injection) of calcium chloride and norepinephrine (in the form of a norepinephrine solution containing calcium chloride) via the right external jugular vein; this rat was defined as Control 1. Similarly to Control 1, with continuous injection of calcium chloride and norepinephrine (in the form of a norepinephrine solution containing calcium chloride) via the right external jugular vein, 0.2 ml of 1% DMSO solution as a solvent control was administered over 30 seconds to a second rat (weight: 310 g) via the right femoral vein, 5 minutes after commencement of injection (intravenous injection) via the right external jugular vein of calcium chloride and norepinephrine (in the form of a norepinephrine solution containing calcium chloride); this rat was defined as Control 2. […]

COc1ccc2c(c1)CN(C(=O)CCN1CCC(Cc3ccccc3)CC1)CCS2 [the compound, 4-[3-(4-benzylpiperidine-1-yl)propionyl]-7-methoxy-2,3,4,5-tetrahydro-1,4-benzothiazepine]
Left ventricular diastolic pressure compared with Controls 1 and 2 at the same time point (15 minutes after commencement of the test drug, Test drugs 1 and 2): less than half those in Controls 1 and 2
Left ventricular end diastolic pressure (Test drug 1: 0.3 mg/kg i.v. over 30 s + 0.02 mg/kg/min to 15 min, 0 minutes (just before the start of test drug administration)): 8.9 mmHg
Left ventricular end diastolic pressure (Test drug 1: 0.3 mg/kg i.v. over 30 s + 0.02 mg/kg/min to 15 min, 5 minutes before test drug (just before the start of norepinephrine), baseline): 8.6 mmHg
Left ventricular end diastolic pressure (Test drug 1: 0.3 mg/kg i.v. over 30 s + 0.02 mg/kg/min to 15 min, 10 minutes before test drug (15 minutes after the start of CaCl2), baseline): 8.5 mmHg
Left ventricular end diastolic pressure (Test drug 1: 0.3 mg/kg i.v. over 30 s + 0.02 mg/kg/min to 15 min, 15 minutes before test drug (10 minutes after the start of CaCl2), baseline): 8.6 mmHg
Left ventricular end diastolic pressure (Test drug 1: 0.3 mg/kg i.v. over 30 s + 0.02 mg/kg/min to 15 min, 20 minutes before test drug (5 minutes after the start of CaCl2), baseline): 7.9 mmHg
Left ventricular end diastolic pressure (Test drug 1: 0.3 mg/kg i.v. over 30 s + 0.02 mg/kg/min to 15 min, 25 minutes before test drug (just after the start of CaCl2), baseline): 7.8 mmHg
Left ventricular end diastolic pressure (Test drug 1: 0.3 mg/kg i.v. over 30 s + 0.02 mg/kg/min to 15 min, CaCl2 + norepinephrine infusion, 5 minutes after the start of test drug administration): 10.6 mmHg
Left ventricular end diastolic pressure (Test drug 1: 0.3 mg/kg i.v. over 30 s + 0.02 mg/kg/min to 15 min, CaCl2 + norepinephrine infusion, 10 minutes after the start of test drug administration): 12.5 mmHg
Left ventricular end diastolic pressure (Test drug 1: 0.3 mg/kg i.v. over 30 s + 0.02 mg/kg/min to 15 min, CaCl2 + norepinephrine infusion, 15 minutes after the start of test drug administration): 11.8 mmHg
Left ventricular end diastolic pressure (Test drug 1: 0.3 mg/kg i.v. over 30 s + 0.02 mg/kg/min to 15 min, CaCl2 + norepinephrine infusion, 30 minutes before test drug (5 minutes before the start of CaCl2), baseline): 7.5 mmHg
Left ventricular end diastolic pressure (Test drug 2: 0.3 mg/kg i.v. over 30 s only, 0 minutes (just before the start of test drug administration)): 9.6 mmHg
Left ventricular end diastolic pressure (Test drug 2: 0.3 mg/kg i.v. over 30 s only, 5 minutes before test drug (just before the start of norepinephrine), baseline): 9.3 mmHg
Left ventricular end diastolic pressure (Test drug 2: 0.3 mg/kg i.v. over 30 s only, 10 minutes before test drug (15 minutes after the start of CaCl2), baseline): 9.0 mmHg
Left ventricular end diastolic pressure (Test drug 2: 0.3 mg/kg i.v. over 30 s only, 15 minutes before test drug (10 minutes after the start of CaCl2), baseline): 9.2 mmHg
Left ventricular end diastolic pressure (Test drug 2: 0.3 mg/kg i.v. over 30 s only, 20 minutes before test drug (5 minutes after the start of CaCl2), baseline): 8.8 mmHg
Left ventricular end diastolic pressure (Test drug 2: 0.3 mg/kg i.v. over 30 s only, 25 minutes before test drug (just after the start of CaCl2), baseline): 8.6 mmHg
Left ventricular end diastolic pressure (Test drug 2: 0.3 mg/kg i.v. over 30 s only, CaCl2 + norepinephrine infusion, 5 minutes after the start of test drug administration): 13.8 mmHg
Left ventricular end diastolic pressure (Test drug 2: 0.3 mg/kg i.v. over 30 s only, CaCl2 + norepinephrine infusion, 10 minutes after the start of test drug administration): 16.4 mmHg
Left ventricular end diastolic pressure (Test drug 2: 0.3 mg/kg i.v. over 30 s only, CaCl2 + norepinephrine infusion, 15 minutes after the start of test drug administration): 15.3 mmHg
Left ventricular end diastolic pressure (Test drug 2: 0.3 mg/kg i.v. over 30 s only, CaCl2 + norepinephrine infusion, 30 minutes before test drug (5 minutes before the start of CaCl2), baseline): 8.4 mmHg
